Reference: patent US20240292836A1, “AGENTS FOR REPELLING, KNOCKING DOWN, AND/OR KILLING BLOOD-SUCKING ARTHROPODS AND USES THEREOF” (The United States of America, as represented by the …, priority 2023, published 2024)
Values joined by “and” are separate entries in the source; they are usually repeats but may differ in a detail not shown here. Equal values may be shown once. “Also recorded” adds a separate entry of the source.

Assays:
[1] = system: female Aedes aegypti adults; assay: Arm-in-cage cloth-patch in vivo assay (topical repellency); conditions: for Minimum Effective Dose (MED): Mean ± SEM, lowest dosage with five or fewer bites through repellent-treated cloth in 1-minute exposure, at least three volunteers; for topical repellency (in words): initial screening dose of 0.187 mg/cm^2
Description: Arm-in-Cage Test Cloth-Patch in vivo Assay Pyrethroid-susceptible yellow fever mosquitoes Ae. aegypti (Orlando strain) were reared in the United States Department of Agriculture Mosquito and Fly Research Unit in Gainesville, FL under standard protocols. Three to seven-day-old, starved female mosquitoes were collected using a “draw box” (Posey, K. and Schreck, C. E, 1981, “An airflow apparatus for selecting female mosquitoes for use in repellent and attraction studies” Mosquito News 41: 566-568; US. Department of Agriculture, 1977, Repellent activity of compounds submitted by Walter Reed Army Institute of Research. Part 1. Protection time and minimum effective dosage against Aedes aegypti mosquitoes. Tech. Bull. No. 1549) and were placed in cages at an approximate density 200 mosquitoes/cage. Repellency was determined according to a standard protocol (Bernier, U. R., et al, 2022. “Evaluation and application of repellent-treated uniform/clothing and textiles against vector mosquitoes,” In Advances in Arthropod Repellents (pp. 69-94). Academic Press) and reported as the minimum effective dosage (MED). […] A nylon leg stocking was placed over the arm to prevent direct contact of the repellent-treated cloth patch with the skin. […]. Cloth was treated by placing a rolled bandage (50 cm^2) into each vial containing 1 mL of solution and allowing the patch to absorb the solution completely. The cloth was taped over a 4 by 9-cm opening cut into a vinyl plastic sheet that was draped around the volunteers' arms and taped in place. The cloth was air-dried approximately 15 min before conducting each test. The work reported here is an average of the MED for at least three volunteers. Each volunteer covered his or her arm with a nylon stocking to avoid contact between the skin and the treated cloth and wore a rubber glove to prevent mosquito bites on the hand.
. The minimum effective dose (MED) was determined for each repellent and subject, defined as the lowest concentration that prevents biting). MEDs from each subject were pooled and reported as the average among all replicates/subjects with SEM. A minimum of 3 replicates were performed on at least three human subjects. Written informed consent was obtained for all human subjects used in this study in accordance with IRB protocol #20193320, as approved by the WCG™ IRB.
Statistical Analyses: Student's T-test was used to compare the means between tested compound and DEET and Icaridin in the arm-in-cage in vivo assay and neurophysiological study.

[2] = system: female Aedes aegypti adults; assay: High-throughput in vitro screening assay, spatial repellency; type: in vivo; conditions: for 30-minute RD50 compared with that of DEET: 30 minutes, α = 0.05; for RD50 (30 min), half-repellent dose / RD50 (60 min), half-repellent dose: dose per filter paper surface area, 95% CI; for spatial repellency (in words): highest-tested dose of 100 μg/cm^2
Description: A high-throughput screening method for evaluating spatial repellency and vapor toxicity, described by Jiang S., et al. (2019, “High-Throughput Screening Method for Evaluating Spatial Repellency and Vapour Toxicity to Mosquitoes,” Med. Vet. Entomol. 33: 388-396), was used for this study. As shown in FIG. 2 of Jiang S., et al., assay tubes were constructed by covering 12.5 cm glass tubes on one side with netting secured by a rubber band. The tubes were used in horizontal orientation. Adult mosquitos 2-7 days old were anesthetized on ice for approximately 5 minutes and 16 females were transferred to each tube. The other end of the tube was then closed with netting and a rubber band.
The conical ends of 50 mL centrifuge tubes (Eppendorf, Enfield, Connecticut, USA) were cut at approximately the 10 mL mark to create the end caps for the assay tubes. […] For repellency tests, filter papers for the “untreated” side of the assay tube received pure acetone, whereas filter papers for the “treated” side received acetone solution containing a dissolved compound of interest. For knockdown tests, both filter papers were treated with acetone solution containing one or more compounds of interest. Acetone on both filter papers served as negative controls.
For repellency assays, filter papers were given 10 minutes of evaporation time before being placed into the end caps with forceps (Jiang S., et al. 2019, Supra). For knockdown assays, filter papers were given 5 minutes of evaporation time before being placed into the end caps. […] Assay tubes were capped such that the cap securely overlapped the glass but approximately 5 mm of space was left between the netting and the filter paper so that the mosquitos could not contact the filter paper.
Assay tubes were placed on a white polystyrene platform with wooden sticks glued flatly across it to prevent the tubes from rolling. A straight black line was drawn down the center of the platform and assay tubes were centered on the line at the beginning of the tests. In repellency assays, data were collected at 15, 30, and 60 minutes after the end caps were placed on the assay tubes. Assay tubes were not disturbed for the entire 60 minutes. At each time point, the number of mosquitos that remained on the treated side was visually assessed and recorded. The treated side was alternated with each set of tests. For repellency tests, DEET at a dose of 100 μg/cm^2 served as the positive control.
For the high-throughput in vitro screening assays, analyses were conducted with R version 4.2.2 statistical software (R Core Team, 2022, “R: a language and environment for statistical computing. R foundation for statistical computing,” Vienna, Austria). Concentrations were calculated in terms of filter paper surface area (μg/cm^2) for repellency assays and in terms of assay tube volume (μg/cm^3) for knockdown assays.
Half-repellent (RD50), half-knockdown (KD50), and half-lethal (LD50) doses were calculated from dose-response curves (DRCs) obtained by four-parameter log-logistic equation models generated using the drc package (Dose Response Curve Analyses Software; Ritz C. et al., 2015, “Dose-response analysis using R,” PLOS ONE 10: e0146021). For repellency test analysis, the upper and lower asymptotes for the proportion of mosquitos remaining on the treated side were fixed at 0.5 and 0, respectively. For KD and mortality test analysis, the upper and lower asymptotes for the proportion of mosquitos knocked down or killed were fixed at 1.0 and 0, respectively. To determine whether RD50, KD50, or LD50 values differed across compounds at each timepoint, a joint model assuming different values for each compound and a null model that assumed a single value for all compounds were compared with a likelihood ratio test.

## C=CCOC(=O)c1ccccc1N [AA, allyl anthranilate]
[1]
  Minimum Effective Dose (MED): 0.039 mg/cm^2
[2]
  30-minute RD50 compared with that of DEET: significantly lower than that of DEET

## O=C(OCc1ccccc1)c1ccccc1 [BB, benzyl benzoate]
[1]
  Minimum Effective Dose (MED): >0.187 mg/cm^2
  topical repellency (in words): did not show any topical repellencies
[2]
  RD50 (30 min), half-repellent dose: >100 μg/cm^2
  RD50 (60 min), half-repellent dose: >100 μg/cm^2
  spatial repellency (in words): did not show spatial repellencies

## CCOC(=O)c1ccccc1OC [E2MOB, ethyl 2-methoxybenzoate]
[1]
  topical repellency (in words): did not exhibit topical repellency
[2]
  RD50 (30 min), half-repellent dose: 8.83 μg/cm^2
  30-minute RD50 compared with that of DEET: significantly lower than that of DEET

## CCOC(=O)c1cccc(N)c1 [E3AB, ethyl 3-aminobenzoate]
[1]
  Minimum Effective Dose (MED): 0.039 mg/cm^2
[2]
  RD50 (30 min), half-repellent dose: >100 μg/cm^2
  RD50 (60 min), half-repellent dose: >100 μg/cm^2
  spatial repellency (in words): did not show any spatial repellencies

## CCOC(=O)c1ccc(OC)cc1 [E4MOB, ethyl 4-methoxybenzoate]
[1]
  Minimum Effective Dose (MED): >0.187 mg/cm^2
  topical repellency (in words): did not show any topical repellencies; also recorded: did not exhibit topical repellency
[2]
  30-minute RD50 compared with that of DEET: significantly lower than that of DEET

## CCOC(=O)c1ccccc1N [EA, ethyl anthranilate]
[1]
  Minimum Effective Dose (MED): 0.037 mg/cm^2
[2]
  30-minute RD50 compared with that of DEET: significantly lower than that of DEET

## CCOC(=O)c1ccccc1 [EB, ethyl benzoate]
[1]
  Minimum Effective Dose (MED): >0.187 mg/cm^2
  topical repellency (in words): did not show any topical repellencies
[2]
  RD50 (30 min), half-repellent dose: >100 μg/cm^2
  RD50 (60 min), half-repellent dose: >100 μg/cm^2
  spatial repellency (in words): did not show spatial repellencies

## CCOC(=O)c1ccccc1NC=O [EFA, ethyl N-formylanthranilate]
[1]
  Minimum Effective Dose (MED): 0.0062 mg/cm^2
[1]; relative to initial screening dose of 0.187 mg/cm^2
  MED, times lower than the initial screening dose: 30 times
[2]
  RD50 (30 min), half-repellent dose: >100 μg/cm^2
  RD50 (60 min), half-repellent dose: >100 μg/cm^2
  spatial repellency (in words): did not show spatial repellencies

## CCC(C)OC(=O)N1CCCCC1CCO (centres unmarked) [Icaridin, 1-(1-Methylpropoxycarbonyl)-2-(2-hydroxyethyl)piperidine, reference compound]
[1]
  Minimum Effective Dose (MED): 0.0150±0.004 mg/cm^2 and 0.0150 mg/cm^2

## COC(=O)c1ccccc1S(N)(=O)=O [M2ASB, methyl 2-(aminosulfonyl)benzoate]
[1]
  Minimum Effective Dose (MED): >0.187 mg/cm^2
  topical repellency (in words): did not show any topical repellencies
[2]
  RD50 (30 min), half-repellent dose: >100 μg/cm^2
  RD50 (60 min), half-repellent dose: >100 μg/cm^2
  spatial repellency (in words): did not show spatial repellencies

## COC(=O)c1ccccc1Cl [M2CB, methyl 2-chlorobenzoate]
[1]
  Minimum Effective Dose (MED): 0.164 mg/cm^2
  topical repellency (in words): demonstrated repellency at doses lower than 0.187 mg/cm^2 on at least one test subject
[2]
  30-minute RD50 compared with that of DEET: not significantly different from that of DEET

## COC(=O)c1ccccc1C [M2MB, methyl 2-methylbenzoate]
[1]
  Minimum Effective Dose (MED): 0.250 mg/cm^2
  topical repellency (in words): demonstrated repellency at doses lower than 0.187 mg/cm^2 on at least one test subject
[2]
  RD50 (30 min), half-repellent dose: >100 μg/cm^2
  RD50 (60 min), half-repellent dose: >100 μg/cm^2
  spatial repellency (in words): did not show spatial repellencies

## COC(=O)c1cccc(C)c1 [M3MB, methyl 3-methylbenzoate]
[1]
  Minimum Effective Dose (MED): 0.219 mg/cm^2
  topical repellency (in words): demonstrated repellency at doses lower than 0.187 mg/cm^2 on at least one test subject
[2]
  RD50 (30 min), half-repellent dose: >100 μg/cm^2
  RD50 (60 min), half-repellent dose: >100 μg/cm^2
  spatial repellency (in words): did not show spatial repellencies

## COC(=O)c1cccc(OC)c1 [M3MOB, methyl 3-methoxybenzoate]
[1]
  Minimum Effective Dose (MED): 0.266 mg/cm^2
  topical repellency (in words): demonstrated repellency at doses lower than 0.187 mg/cm^2 on at least one test subject
[2]
  30-minute RD50 compared with that of DEET: not significantly different from that of DEET

## COC(=O)c1ccc(N)cc1 [M4AB, methyl 4-aminobenzoate]
[1]
  Minimum Effective Dose (MED): >0.187 mg/cm^2
  topical repellency (in words): did not show any topical repellencies
[2]
  RD50 (30 min), half-repellent dose: >100 μg/cm^2
  RD50 (60 min), half-repellent dose: >100 μg/cm^2
  spatial repellency (in words): did not show spatial repellencies

## COC(=O)c1ccc(Cl)cc1 [M4CB, methyl 4-chlorobenzoate]
[1]
  Minimum Effective Dose (MED): >0.187 mg/cm^2
  topical repellency (in words): did not show any topical repellencies
[2]
  RD50 (30 min), half-repellent dose: >100 μg/cm^2
  RD50 (60 min), half-repellent dose: >100 μg/cm^2
  spatial repellency (in words): did not show spatial repellencies

## CNc1ccccc1C(=O)OC [MMA, methyl N-methylanthranilate]
[2]
  30-minute RD50 compared with that of DEET: significantly lower than that of DEET

## CC(C)COC(=O)c1ccccc1N [iBA, iso-butyl anthranilate]
[2]
  30-minute RD50 compared with that of DEET: not significantly different from that of DEET

## CCCCOC(=O)c1ccccc1N [nBA, n-butyl anthranilate]
[2]
  RD50 (30 min), half-repellent dose: >100 μg/cm^2
  spatial repellency (in words): did not show any spatial repellencies
